Data published in patent US8257928B2, “Methods for predicting and treating tumors resistant to drug, immunotherapy and radiation” (The Regents of the University of California, priority 2008, dated 2012).

Tested on: HMT3522 T4-2 cells
Assay: Affymetrix U133A 2.0 gene expression profiling of T4-2 N-CoR2 cells vs T4-2 vector cells grown on rBM;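 note: total RNA converted to biotin-labelled cRNA, hybridized to arrays and confocally scanned, probe set intensities computed by GC-RMA, genes kept if flagged present in at least 2 of 8 samples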
Type: cell-based, human
Details: T4-2 N-CoR2 cells on rBM, 6 days
Protocol: HMT3522 T4-2 cells were derived from an epidermal growth factor (EGF)-dependent breast epithelial HMT3522 S-1 cells and an EGF-independent HMT3522 S-2 cells that spontaneously became malignant when injected into nude mice. HMT3522 T4-2 cells were propagated as monolayers on type I collagen-coated plastic surface in chemically defined medium consisting of DMEM:F12 medium (Invitrogen GIBCO), containing 250 ng/ml insulin (Boehringer Mannheim), 10 μg/ml transferrin (Sigma, St. Louis, Mo.), 2.6 ng/ml sodium splenetic (Collaborative Research), 10^−10 M estradiol (Sigma), 1.4×10^−6 M hydrocortisone (Collaborative Research), and 5 μg/ml prolactin (Sigma), as described in J. Cell Biol. 137:231-245 (1997).
Amphotropic retrovirus was produced in modified 293 cells or in Phoenix ampho cells (provided by Professor G. Nolan, Stanford Medical Center) with packaging vectors pCgp and pVSVG to boost viral titer. […] Sorted cells were expanded again in the presence of tetracycline.
To increase the yield of RNA for transcriptional profiling experiments, we grew 2×10^5 cells on top of rBM in a 60-mm tissue culture dish. As described, cells grown on top of rBM formed 3D cellular aggregates similar to those embedded in rBM. […] The cultures were maintained for 6 days before the collection of RNA samples.
Total RNA was extracted from monolayer culture or 3D culture by a modified TR1 reagent procedure as described (Biotechniques 19:942-945 (1995)) and purified using an RNeasy Mini Kit (Qiagen). Gene expression analysis was performed on an Affymetrix Human Genome U133A 2.0 GeneChip platform containing 22,283 probes according to the manufacturer's protocol (Affymetrix). Twenty micrograms of total RNA from each sample was processed to produce biotinylated cRNA targets. After hybridization, washing and staining arrays were scanned using a confocal scanner (Affymetrix). The hybridization intensity data was processed using the GeneChip Operating software (Affymetrix). Affymetrix .cel files (probe intensity files) were processed with ArrayAssist Lite (v3.4, Stratagene). The files were imported and processed with the GC-RMA algorithm to yield probe set intensities and additionally, Affymetrix Preset, Absent, Marginal flags were computed. These values were exported in .chp files, which were subsequently imported into the Partek Genomics Suite software (v6.2, Partek). The genes were filtered based on the Affymetrix P/A/M flags to retain only those genes that were present in at least 2 of the 8 samples.

N-CoR2
MEAN INTENSITY (N) 33304_at ISG20: 482.12 | MEAN INTENSITY (N) 38037_at HBEGF: 361.24 | MEAN INTENSITY (N) 38043_at FAM3A: 68.61 | MEAN INTENSITY (N) 53991_at DENND2A: 20.60 | MEAN INTENSITY (N) 200696_s_at GSN: 914.82 | MEAN INTENSITY (N) 200821_at LAMP2: 347.91 | MEAN INTENSITY (N) 200914_x_at KTN1: 343.43 | MEAN INTENSITY (N) 201007_at HADHB: 7136.54 | MEAN INTENSITY (N) 201132_at HNRPH2: 143.04 | MEAN INTENSITY (N) 201215_at PLS3: 411.68 | MEAN INTENSITY (N) 201472_at VBP1: 161.81 | MEAN INTENSITY (N) 201540_at FHL1: 1059.88 | MEAN INTENSITY (N) 201661_s_at ACSL3: 24.61 | MEAN INTENSITY (N) 201864_at GDI1: 358.31 | MEAN INTENSITY (N) 201865_x_at NR3C1: 332.55 | MEAN INTENSITY (N) 201887_at IL13RA1: 93.97 | MEAN INTENSITY (N) 201917_s_at SLC25A36: 28.72 | MEAN INTENSITY (N) 201996_s_at SPEN: 72.47 | MEAN INTENSITY (N) 202169_s_at AASDIIPPT: 25.30 | MEAN INTENSITY (N) 202277_at SPTLC1: 110.99 | MEAN INTENSITY (N) 202351_at ITGAV: 510.51 | MEAN INTENSITY (N) 202371_at TCEAL4: 269.43 | MEAN INTENSITY (N) 202376_at SERPINA3: 196.67 | MEAN INTENSITY (N) 202378_s_at LEPROT: 228.55 | MEAN INTENSITY (N) 202411_at IFI27: 155.11 | MEAN INTENSITY (N) 202439_s_at IDS: 270.52 | MEAN INTENSITY (N) 202602_s_at HTATSF1: 79.70 | MEAN INTENSITY (N) 202829_s_at SYBL1: 38.13 | MEAN INTENSITY (N) 202923_s_at GCLC: 167.13 | MEAN INTENSITY (N) 203042_at LAMP2: 638.66 | MEAN INTENSITY (N) 203156_at AKAP11: 21.24 | MEAN INTENSITY (N) 203186_s_at S100A4: 227.62 | MEAN INTENSITY (N) 203303_at DYNLT3: 44.35 | MEAN INTENSITY (N) 203453_at SCNN1A: 142.26 | MEAN INTENSITY (N) 203780_at EVA1: 133.29 | MEAN INTENSITY (N) 203821_at HBEGF: 977.38 | MEAN INTENSITY (N) 203917_at CXADR: 71.25 | MEAN INTENSITY (N) 204020_at PURA: 200.32 | MEAN INTENSITY (N) 204097_s_at RBMX2: 21.99 | MEAN INTENSITY (N) 204343_at ABCA3: 38.38 | MEAN INTENSITY (N) 204351_at S100P: 180.28 | MEAN INTENSITY (N) 204533_at CXCL10: 24.04 | MEAN INTENSITY (N) 204584_at L1CAM: 327.45 | MEAN INTENSITY (N) 204602_at DKK1: 259.47 | MEAN INTENSITY (N) 204881_s_at UGCG: 120.86 | MEAN INTENSITY (N) 204976_s_at AMMECR1: 36.28 | MEAN INTENSITY (N) 204981_at SLC22A18: 205.14 | MEAN INTENSITY (N) 205097_at SLC26A2: 85.76 | MEAN INTENSITY (N) 205128_x_at PTGS1: 125.00 | MEAN INTENSITY (N) 205220_at GPR109B: 645.95 | MEAN INTENSITY (N) 205315_s_at SNTB2: 87.78 | MEAN INTENSITY (N) 205363_at BBOX1: 120.76 | MEAN INTENSITY (N) 205428_s_at CALB2: 143.13 | MEAN INTENSITY (N) 205569_at LAMP3: 64.51 | MEAN INTENSITY (N) 205595_at DSG3: 177.64 | MEAN INTENSITY (N) 205623_at ALDH3A1: 77.90 | MEAN INTENSITY (N) 205709_s_at CDS1: 42.93 | MEAN INTENSITY (N) 205767_at EREG: 183.71 | MEAN INTENSITY (N) 205809_s_at WASL: 77.44 | MEAN INTENSITY (N) 205900_at KRT1: 95.82 | MEAN INTENSITY (N) 206295_at IL18: 188.27 | MEAN INTENSITY (N) 206342_x_at IDS: 267.58 | MEAN INTENSITY (N) 206645_s_at NR0B1: 107.59 | MEAN INTENSITY (N) 207719_x_at CEP170: 21.69 | MEAN INTENSITY (N) 207941_s_at RNPC2: 78.71 | MEAN INTENSITY (N) 208241_at NRG1: 18.19 | MEAN INTENSITY (N) 209022_at STAG2: 24.13 | MEAN INTENSITY (N) 209028_s_at ABI1: 109.59 | MEAN INTENSITY (N) 209194_at CETN2: 187.44 | MEAN INTENSITY (N) 209289_at NFIB: 64.90 | MEAN INTENSITY (N) 209726_at CA11: 105.08 | MEAN INTENSITY (N) 209792_s_at KLK10: 505.96 | MEAN INTENSITY (N) 210367_s_at PTGES: 246.35 | MEAN INTENSITY (N) 210387_at HIST1H2BG: 579.17 | MEAN INTENSITY (N) 211122_s_at CXCL11: 12.87 | MEAN INTENSITY (N) 211343_s_at COL13A1: 88.75 | MEAN INTENSITY (N) 211612_s_at IL13RA1: 104.96 | MEAN INTENSITY (N) 211671_s_at NR3C1: 263.10 | MEAN INTENSITY (N) 212007_at UBXD2: 117.00 | MEAN INTENSITY (N) 212221_x_at IDS: 571.11 | MEAN INTENSITY (N) 212223_at IDS: 186.65 | MEAN INTENSITY (N) 212414_s_at SEPT6: 68.28 | MEAN INTENSITY (N) 212415_at SEPT6: 11.03 | MEAN INTENSITY (N) 212510_at GPD1L: 22.53 | MEAN INTENSITY (N) 212531_at LCN2: 420.45 | MEAN INTENSITY (N) 212605_s_at: 41.36 | MEAN INTENSITY (N) 212616_at CHD9: 17.34 | MEAN INTENSITY (N) 212622_at TMEM41B: 26.02 | MEAN INTENSITY (N) 212640_at PTPLB: 459.88 | MEAN INTENSITY (N) 213016_at: 34.12 | MEAN INTENSITY (N) 213083_at SLC35D2: 234.84 | MEAN INTENSITY (N) 213135_at TIAM1: 24.42 | MEAN INTENSITY (N) 213229_at DICER1: 464.53 | MEAN INTENSITY (N) 213294_at: 18.29 | MEAN INTENSITY (N) 213593_s_at TRA2A: 34.25 | MEAN INTENSITY (N) 213729_at PRPF40A: 15.54 | MEAN INTENSITY (N) 214022_s_at IFITM1: 4135.74 | MEAN INTENSITY (N) 214112_s_at CXorf40A: 479.14 | MEAN INTENSITY (N) 214718_at GATAD1: 33.09 | MEAN INTENSITY (N) 214722_at NOTCH2NL: 159.38 | MEAN INTENSITY (N) 215206_at EXT1: 106.70 | MEAN INTENSITY (N) 215245_x_at FMR1: 78.43 | MEAN INTENSITY (N) 215813_s_at PTGS1: 76.88 | MEAN INTENSITY (N) 216095_x_at MTMR1: 318.26 | MEAN INTENSITY (N) 216942_s_at CD58: 34.65 | MEAN INTENSITY (N) 217388_s_at KYNU: 634.02 | MEAN INTENSITY (N) 217813_s_at SPIN: 59.32 | MEAN INTENSITY (N) 217947_at CMTM6: 498.31 | MEAN INTENSITY (N) 217948_at: 706.40 | MEAN INTENSITY (N) 217975_at WBP5: 441.28 | MEAN INTENSITY (N) 218053_at PRPF40A: 132.43 | MEAN INTENSITY (N) 218085_at CHMP5: 84.03 | MEAN INTENSITY (N) 218086_at NPDC1: 330.55 | MEAN INTENSITY (N) 218163_at MCTS1: 521.74 | MEAN INTENSITY (N) 218237_s_at SLC38A1: 608.07 | MEAN INTENSITY (N) 218668_s_at RAP2C: 54.25 | MEAN INTENSITY (N) 218986_s_at FLJ20035: 29.34 | MEAN INTENSITY (N) 219001_s_at WDR32: 26.25 | MEAN INTENSITY (N) 219010_at C1orf106: 585.64 | MEAN INTENSITY (N) 219045_at RHOF: 540.25 | MEAN INTENSITY (N) 219351_at TRAPPC2: 71.62 | MEAN INTENSITY (N) 219356_s_at CHMP5: 242.88 | MEAN INTENSITY (N) 219956_at GALNT6: 147.85 | MEAN INTENSITY (N) 219995_s_at FLJ13841: 795.33 | MEAN INTENSITY (N) 221553_at RP11-217II1.1: 90.64 | MEAN INTENSITY (N) 221581_s_at LAT2: 163.24 | MEAN INTENSITY (N) 221766_s_at FAM46A: 25.10 | MEAN INTENSITY (N) 221829_s_at TNPO1: 213.54 | MEAN INTENSITY (N) 221841_s_at KLF4: 264.55 | MEAN INTENSITY (N) 221844_x_at: 96.74 | MEAN INTENSITY (N) 222242_s_at KLK5: 26.38 | MEAN INTENSITY (N) 222266_at C19orf2: 25.69
